Experimental data as given in patent publication US20110039762A1, “TARGETED ANTIMICROBIAL MOIETIES” (C3 JIAN, INC., priority 2009, published 2011).
“Also recorded” adds a separate entry of the source.

What was measured:
MRSA [1] = experiment: MIC (broth microdilution); assay type: cell-based, Methicillin-resistant Staphylococcus aureus
Experimental: (§1) Typically, the in vitro antimicrobial activity of antimicrobial agents is tested using standard NCCLS bacterial inhibition assays, or MIC tests (see, National Committee on Clinical Laboratory Standards “Performance Standards for Antimicrobial Susceptibility Testing,” NCCLS Document M100-S5 Vol. 14, No. 16, December 1994; “Methods for dilution antimicrobial susceptibility test for bacteria that grow aerobically-Third Edition,” Approved Standard M7-A3, National Committee for Clinical Standards, Villanova, Pa.).
(§2) Briefly, ˜1×10^5 cfu/mL bacteria were diluted in TH (S. mutans), or Mueller-Hinton (MH) broth (all other organisms) and distributed to 96-well plates. Serially-diluted (2-fold) peptides were then added and the plates incubated at 37° C. for 18-24 h. […] All experiments were conducted 10 times.

S. mutans [2] = assay type: cell-based, Streptococcus mutans; conditions: S. mutans
Experimental: as §1, §2

P. aeruginosa [3] = assay type: cell-based, Pseudomonas aeruginosa; conditions: P. aeruginosa
Experimental: as §1, §2

P. mirabilis = experiment: Kill or inhibit growth/proliferation; morphology, biofilm and growth disruption (Tables 5, 6); assay type: cell-based; design: key: A: Peptide aggregates; B: Less hyphal formation; Clumps; Diffuse clumps and small polyps; F: Diffuse growth; H: Thin; I: Growth inhibition; Microcolony formation; Rippled; Small polyps; Thick; W: Halo formation on top, microlonies on bottom; also: test concentration or dose not given here
microorganisms = experiment: Peptides having multiple activities (targeting/binding, antimicrobial, growth or phenotype altering)
From the text: In certain embodiments, peptides described herein can have multiple activities. Thus for example, a peptide can have both binding/targeting activity and antimicrobial activity. Such peptides can be used, e.g., in a chimeric construct, for any or all of these properties. Thus, for example, a peptide designated “B” in Table 8 can be used as a targeting peptide. If it is also designated G or M it can also be used for antimicrobial activity.

B. subtilis [4] = experiment: Kill or inhibit growth/proliferation; morphology, biofilm and growth disruption (Tables 5, 6); assay type: cell-based, Bacillus subtilis; design: key: A: Peptide aggregates; B: Less hyphal formation; Clumps; Diffuse clumps and small polyps; F: Diffuse growth; H: Thin; I: Growth inhibition; Microcolony formation; Rippled; Small polyps; Thick; W: Halo formation on top, microlonies on bottom; also: test concentration or dose not given here
S. epidermidis [5] = experiment: as above; assay type: cell-based, Staphylococcus epidermidis; design: key: A: Peptide aggregates; B: Less hyphal formation; Clumps; Diffuse clumps and small polyps; F: Diffuse growth; H: Thin; I: Growth inhibition; Microcolony formation; Rippled; Small polyps; Thick; W: Halo formation on top, microlonies on bottom
MRSA [6] = experiment: as above; assay type: cell-based, Methicillin-resistant Staphylococcus aureus; design: key: A: Peptide aggregates; B: Less hyphal formation; Clumps; Diffuse clumps and small polyps; F: Diffuse growth; H: Thin; I: Growth inhibition; Microcolony formation; Rippled; Small polyps; Thick; W: Halo formation on top, microlonies on bottom
S. mutans [7] = experiment: as above; assay type: cell-based, Streptococcus mutans; design: key: A: Peptide aggregates; B: Less hyphal formation; Clumps; Diffuse clumps and small polyps; F: Diffuse growth; H: Thin; I: Growth inhibition; Microcolony formation; Rippled; Small polyps; Thick; W: Halo formation on top, microlonies on bottom
M. luteus = experiment: as above; assay type: cell-based, Micrococcus luteus; design: key: A: Peptide aggregates; B: Less hyphal formation; Clumps; Diffuse clumps and small polyps; F: Diffuse growth; H: Thin; I: Growth inhibition; Microcolony formation; Rippled; Small polyps; Thick; W: Halo formation on top, microlonies on bottom
E. coli = experiment: as above; assay type: cell-based, Escherichia coli; design: key: A: Peptide aggregates; B: Less hyphal formation; Clumps; Diffuse clumps and small polyps; F: Diffuse growth; H: Thin; I: Growth inhibition; Microcolony formation; Rippled; Small polyps; Thick; W: Halo formation on top, microlonies on bottom
C. jejuni = experiment: as above; assay type: cell-based, Campylobacter jejuni; design: key: A: Peptide aggregates; B: Less hyphal formation; Clumps; Diffuse clumps and small polyps; F: Diffuse growth; H: Thin; I: Growth inhibition; Microcolony formation; Rippled; Small polyps; Thick; W: Halo formation on top, microlonies on bottom; also: test concentration or dose not given here
C. jeikeium = experiment: as above; assay type: cell-based, Corynebacterium jeikeium; design: key: A: Peptide aggregates; B: Less hyphal formation; Clumps; Diffuse clumps and small polyps; F: Diffuse growth; H: Thin; I: Growth inhibition; Microcolony formation; Rippled; Small polyps; Thick; W: Halo formation on top, microlonies on bottom; also: test concentration or dose not given here
S. pneumoniae = experiment: as above; assay type: cell-based, Streptococcus pneumoniae; design: key: A: Peptide aggregates; B: Less hyphal formation; Clumps; Diffuse clumps and small polyps; F: Diffuse growth; H: Thin; I: Growth inhibition; Microcolony formation; Rippled; Small polyps; Thick; W: Halo formation on top, microlonies on bottom; also: test concentration or dose not given here
S. epidermidis [8] = assay type: cell-based, Staphylococcus epidermidis; conditions: S. epidermidis
Experimental: as §1, §2

B. subtilis [9] = experiment: MIC (broth microdilution); assay type: cell-based, Bacillus subtilis
Experimental: as §1, §2

[10] = system: microorganisms (e.g., bacteria, yeasts, fungi); experiment: Targeting peptide binding to target microorganisms (Table 3); conditions: preferably 1x PBS; for Target(s): microorganism(s) the targeting peptide binds, binding in aqueous buffers depending on peptide solubility
T. rubrum = experiment: MIC (broth microdilution); assay type: cell-based, Trichophyton rubrum
Experimental: as §1, §2

A. niger = experiment: MIC (broth microdilution); assay type: cell-based, Aspergillus niger
Experimental: as §1, §2

P. aeruginosa [11] = experiment: Kill or inhibit growth/proliferation; morphology, biofilm and growth disruption (Tables 5, 6); assay type: cell-based, Pseudomonas aeruginosa; design: key: A: Peptide aggregates; B: Less hyphal formation; Clumps; Diffuse clumps and small polyps; F: Diffuse growth; H: Thin; I: Growth inhibition; Microcolony formation; Rippled; Small polyps; Thick; W: Halo formation on top, microlonies on bottom; also: test concentration or dose not given here
For Organism, effect (morphology, biofilm and growth disruption) in this document: test concentration or dose not given here.
For Organism, effect in this document: test concentration or dose not given here.

Substance | Organism, effect (P. mirabilis) | Activities (microorganisms) | Organism, effect (S. epidermidis [5]) | Organism, effect (MRSA [6]) | Organism, effect (S. mutans [7]) | Organism, effect (M. luteus) | Organism, effect (E. coli) | Organism, effect (S. pneumoniae) | also measured
FIRKFLQKLHL [Peptide K-16] |  |  |  |  |  |  |  |  | MIC (MRSA [1]): MRSA , 25 μM; MIC (S. mutans [2]): S. mutans, 8 μM; MIC (P. aeruginosa [3]): P. aeruginosa, 12.5 μM
MIHLTKQNTMEALHFIKQFYDMFFILNFNV [PF-040] | P. mirabilis (C) | G B | S. epidermidis (D) | MRSA (D) | S. mutans (F) | M. luteus (D) | E. coli (C) | S. pneumoniae (D) | Organism, effect (B. subtilis [4]): B. subtilis (D); Organism, effect (C. jejuni): C. jejuni (D); Organism, effect (C. jeikeium): C. jeikeium (D)
MIRIRSPTKKKLNRNSISDWKSNTSGRFFY [PF-283] |  | G B M | S. epidermidis (H) |  |  |  |  |  | Organism, effect (B. subtilis [4]): B. subtilis (H); MIC (S. epidermidis [8]): S. epidermidis, 50 μM; MIC (B. subtilis [9]): B. subtilis, 50 μM; Target(s) [10]: B. subtilis; also recorded: B. fragilis; also recorded: C. difficile; MIC (T. rubrum): T. rubrum, 50 μM
PF-578: peptide having multiple activities (chain 1 QKANLRIGFTYTSDSNVCNLTFALLGSK; chain 2 QKANLRIGFTYTSDSNVCNLTFALLGSK; Peptide with targeting and/or antimicrobial activity) | P. mirabilis (C) | G B | S. epidermidis (D) | MRSA (C) | S. mutans (D) | M. luteus (C) | E. coli (C) | S. pneumoniae (D) | 
PF-612: peptide having multiple activities (GTTLKYGLERQLKIDIHPEITIINLNGGADEFAKL; Peptide with targeting and/or antimicrobial activity) | P. mirabilis (C) | G B | S. epidermidis (C) | MRSA (C) | S. mutans (F) | M. luteus (A) | E. coli (C) | S. pneumoniae (C) | 
PF-624 (VFLLDSYCFVKINL; Peptide with targeting and/or antimicrobial activity) | P. mirabilis (C) |  | S. epidermidis (D) | MRSA (C) | S. mutans (D) | M. luteus (C) | E. coli (C) | S. pneumoniae (D) | 
PF-634: peptide having multiple activities (chain 1 MPKARPVNHNKKKSKITIKSNFTLFYMFNP; chain 2 MPKARPVNHNKKKSKITIKSNFTLFYMFNP; Peptide with targeting and/or antimicrobial activity) | P. mirabilis (C) | G B | S. epidermidis (D) | MRSA (D) | S. mutans (D) | M. luteus (C) | E. coli (C) | S. pneumoniae (D) | 
PF-741: peptide having multiple activities (AKREDTVAAQIGANILNLIQ; Peptide with targeting and/or antimicrobial activity) |  | G B |  |  |  |  |  |  | Organism, effect (morphology, biofilm and growth disruption) (P. mirabilis): P. mirabilis (C); Organism, effect (morphology, biofilm and growth disruption) (S. epidermidis [5]): S. epidermidis (C); Organism, effect (morphology, biofilm and growth disruption) (MRSA [6]): MRSA (C); Organism, effect (morphology, biofilm and growth disruption) (S. mutans [7]): S. mutans (D); Organism, effect (morphology, biofilm and growth disruption) (M. luteus): M. luteus (C); Organism, effect (morphology, biofilm and growth disruption) (E. coli): E. coli (C); Target(s) (microorganisms bound by the targeting peptide) ([10]; peptide binding in aqueous buffers varied by peptide solubility): S. epidermidis and M. luteus and P. mirabilis and P. aeruginosa and C. albicans and MRSA and S. pneumoniae and E. faecalis; Organism, effect (morphology, biofilm and growth disruption) (S. pneumoniae): S. pneumoniae (D)
PF-770: peptide having multiple activities (GVGIGFIMMGVVGYAVKLVHIPIRYLIV; Peptide with targeting and/or antimicrobial activity) |  | G B |  |  |  |  |  |  | Organism, effect (morphology, biofilm and growth disruption) (P. mirabilis): P. mirabilis (C); Organism, effect (morphology, biofilm and growth disruption) (S. epidermidis [5]): S. epidermidis (D); Organism, effect (morphology, biofilm and growth disruption) (MRSA [6]): MRSA (D); Organism, effect (morphology, biofilm and growth disruption) (S. mutans [7]): S. mutans (D); Organism, effect (morphology, biofilm and growth disruption) (M. luteus): M. luteus (C); Organism, effect (morphology, biofilm and growth disruption) (E. coli): E. coli (C); Organism, effect (morphology, biofilm and growth disruption) (S. pneumoniae): S. pneumoniae (C)
VLPFPAIPLSRRRACVAAPRPRSRQRAS [PF-168] |  | G B M |  | MRSA (I) |  |  |  |  | MIC (MRSA [1]): MRSA , 50 μM; MIC (A. niger): A. niger, 50 μM; Organism, effect (P. aeruginosa [11]): P. aeruginosa (H); Target(s) [10]: S. epidermidis and M. luteus and E. coli and C. albicans and MRSA and C. jeikeium and C. jejuni; MIC (T. rubrum): T. rubrum, 50 μM
